Data published in PubChem BioAssay (NCI).
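Exposure lasted 48 hours, with cells grown in 96-well plates and compounds tested at five concentrations. GI50 marks 50% less growth. TGI is the concentration that stops growth completely.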

Assays:
Assay in all cases: inhibition of tumour cell growth, NCI panel, 48 h
[1] = test system: A549 NSCLC
[2] = test system: HCT-116 colon
[3] = test system: KM12 colon
[4] = test system: MALME-3M melanoma
[5] = test system: MDA-MB-231 breast
[6] = test system: SK-MEL-2 melanoma
[7] = test system: SK-MEL-5 melanoma
[8] = test system: SN12C renal
[9] = test system: SR leukemia
[10] = test system: SW-620 colon
[11] = test system: TK-10 renal

SMILES | TGI [1] | TGI [2] | TGI [3] | TGI [4] | TGI [5] | TGI [6] | TGI [7] | TGI [8] | TGI [9] | TGI [10] | TGI [11] | GI50 [9]
Cc1ccc(C)c(NC(=O)C(Cc2c[nH]c3ccccc23)NC(=O)OCc2ccccc2)c1 (centres undefined) | 26.1 µM | 98.6 µM | 69.7 µM | 98.9 µM | 47.4 µM | 45.9 µM | 34.5 µM | > 100 µM | 48.2 µM | 35.5 µM | 39.2 µM | 
CCOC1SC(SC)=NN1C(=O)C(OC(C)=O)C(OC(C)=O)C(OC(C)=O)C(OC(C)=O)C(=O)N1N=C(SC)SC1OCC (centres undefined) | > 100 µM | > 100 µM | > 100 µM | > 100 µM | > 100 µM | > 100 µM | > 100 µM | > 100 µM | > 100 µM | > 100 µM | > 100 µM | 
CC1(C)OC(=S)N(c2ccccc2)C12C=Cc1cc3ccccc3cc1O2 (centres undefined) | > 100 µM | > 100 µM | > 100 µM |  | > 100 µM | > 100 µM | > 100 µM | > 100 µM | > 100 µM | > 100 µM | > 100 µM | 
CCOP(C)(=O)C(Nc1ccc(F)cc1)c1ccc(F)cc1 (centres undefined) | > 100 µM | > 100 µM | > 100 µM | > 100 µM | > 100 µM | > 100 µM | > 100 µM | > 100 µM | > 100 µM | > 100 µM | > 100 µM | 
Cn1cnc([N+](=O)[O-])c1Sc1nc(N)nc2c1ncn2Cc1ccccc1 | 84.8 µM | 42.1 µM | > 100 µM | 30.8 µM | 41.3 µM | 40.4 µM | 41.2 µM | 37.3 µM | > 100 µM | 78.2 µM | 41.9 µM | 
CC1Cc2cc(O)ccc2C2[C@@H]1C1CC[C@H](O)[C@@]1(C)C[C@@H]2O[N+](=O)[O-] (some centres undefined) | 79.7 µM | 31.1 µM | > 79.1 µM | > 79.6 µM | 85.8 µM | 55.3 µM | 17.8 µM | > 94.4 µM | > 56.8 µM | > 100 µM | 63.8 µM | 
O=C1C[C@H]2[C@H](c3ccc(Br)cc3)[C@H]3C(=O)c4ccccc4NC(=O)[C@@H]3[C@@]2(O)c2ccccc2N1 | > 100 µM | 33.1 µM | 43.8 µM | 45.5 µM | 36.1 µM |  | 62 µM | > 100 µM | 90.8 µM | > 100 µM | 56.8 µM | 
CC(=O)Nc1ccc(-c2nc3ccccc3s2)cc1O | > 100 µM | > 100 µM | 73 µM |  | > 100 µM | > 100 µM | 62.8 µM | > 100 µM | > 100 µM | > 100 µM | > 100 µM | 
O=C1NN(c2ccccc2)C(=O)C2C3c4ccccc4C(c4ccccc43)C12 (centres undefined) | > 100 µM | > 100 µM | > 100 µM | > 100 µM | > 100 µM | > 100 µM | > 100 µM | > 100 µM | > 100 µM | > 100 µM | > 100 µM | 
CC[C@]12C=CCN3CCC4(c5cc([C@@]6(C(=O)OC)CC7CN(CCc8c6[nH]c6ccccc86)C[C@@H]6CCC[C@H]76)c(OC)cc5N(C)C4[C@](O)(C(=O)OC)C1OC(C)=O)C32 (some centres undefined) | > 10 µM | 3.64 µM |  | > 5.04 µM | 0.536 µM | > 6.89 µM | 0.181 µM | > 10 µM | 0.788 µM | > 4.07 µM | > 10 µM | 
O=C(O)c1cc(Sc2ccc([N+](=O)[O-])c(C(=O)O)c2)ccc1[N+](=O)[O-] | > 100 µM | > 100 µM | > 100 µM | > 78.9 µM | > 100 µM | > 100 µM | > 100 µM | > 100 µM | > 100 µM | > 100 µM | > 100 µM | > 100 µM
CC(=O)O[C@H]1[C@@H](N2CCN(C)CC2)C[C@H]2[C@@H]3CC=C4C[C@@H](N5CCCC5)CC[C@]4(C)[C@H]3CC[C@@]21C | > 100 µM | > 100 µM | > 100 µM | 51 µM | > 100 µM | > 100 µM | 73 µM | > 100 µM | 5.52 µM | > 100 µM | > 100 µM | 
COC(=O)CCC(=O)c1ccc2c(c1)CC1(C2)Cc2ccc3c(c2C1)CCCC3=O (centres undefined) | > 100 µM | > 100 µM | > 85 µM | > 68.1 µM | > 100 µM | 36.9 µM | 22.5 µM | > 100 µM | 8.05 µM | > 100 µM | > 100 µM | 
Cc1cc(-c2nc3cc(F)c(F)cc3s2)ccc1N | > 100 µM | > 100 µM | > 100 µM | > 100 µM | > 100 µM | > 100 µM | > 100 µM | > 100 µM | > 100 µM | > 100 µM |  | 
COC(=O)c1scc(N)c1-n1ccc(=O)[nH]c1=O | > 100 µM | > 100 µM | > 100 µM | > 100 µM | > 100 µM | > 100 µM | > 100 µM | > 100 µM | > 100 µM | > 100 µM | > 100 µM | 
COC1(C)C=NCC(C)(C)NC(=O)C(C)(OC)C=NCC(C)(C)NC1=O (centres undefined) | > 10 µM | > 10 µM | > 10 µM | > 10 µM | > 10 µM |  | > 10 µM | > 10 µM | > 10 µM | > 10 µM | > 10 µM | 
CC(C)(C)NC1C2CCC(C)(C1O)C2(C)C (centres undefined) | > 100 µM | > 100 µM | > 100 µM | > 100 µM | > 100 µM | > 100 µM | > 100 µM |  | > 100 µM | > 100 µM | > 100 µM | 
Cc1nc(C)c(N2CCN(C#N)CC2)c(=O)[nH]1 | > 100 µM | > 100 µM | > 100 µM | > 100 µM | > 100 µM |  | > 100 µM | > 100 µM | > 100 µM | > 100 µM | > 100 µM | 
O=C1OC(c2ccccc2)N/C1=C\c1ccc2c(c1)OCO2 (centres undefined) | > 100 µM | > 100 µM | > 95.5 µM |  | > 100 µM | > 100 µM | > 100 µM | > 100 µM | 63.9 µM | > 100 µM | > 100 µM | 
O=C(/C(=C/c1cccs1)c1ccccc1)c1ccccc1 | > 100 µM | > 100 µM | > 100 µM |  | > 100 µM | > 100 µM | > 100 µM | > 100 µM | > 100 µM | > 100 µM | > 100 µM | 
CC1(C)CC[C@]2(C(=O)O)CC[C@]3(C)C(=CC[C@@H]4[C@@]5(C)CC[C@H](OC6OC(CO)C(O)C(O)C6OC6OC(CO)C(O)C(O)C6O)C(C)(C)[C@@H]5CC[C@]43C)[C@@H]2C1 (some centres undefined) | 33.7 µM | 31.9 µM | 29.4 µM | 30.1 µM | 51.9 µM | 2.48 µM | 33.7 µM | 33.2 µM | 68 µM | 48.3 µM |  | 
CC(=O)OC1COC(Nn2c(=O)[nH]c3ccccc3c2=O)C(OC(C)=O)C1OC(C)=O (centres undefined) | > 100 µM | > 100 µM | > 100 µM |  | > 100 µM | > 100 µM | > 100 µM | > 100 µM | > 100 µM | > 100 µM | > 100 µM | 
NC(CCCCNC(=O)C(Cc1ccccc1)NC(=O)OCc1ccccc1)C(=O)NC(CCCCNC(=O)C(Cc1ccccc1)NC(=O)OCc1ccccc1)C(=O)NC(CCCCNC(=O)C(Cc1ccccc1)NC(=O)OCc1ccccc1)C(=O)NC(CCCCNC(=O)C(Cc1ccccc1)NC(=O)OCc1ccccc1)C(=O)NC(CCCCNC(=O)C(Cc1ccccc1)NC(=O)OCc1ccccc1)C(=O)NC(CCCCNC(=O)C(Cc1ccccc1)NC(=O)OCc1ccccc1)C(=O)O (centres undefined) | > 100 µM | > 100 µM |  | > 100 µM | > 100 µM | > 100 µM | > 100 µM | > 100 µM | > 100 µM | > 100 µM | > 100 µM | 
CN(C(=O)c1cccs1)C(=S)N1CCN(c2ccccc2)CC1 | > 100 µM |  | > 100 µM | > 100 µM | > 100 µM | > 100 µM | > 100 µM | > 100 µM | > 100 µM | > 100 µM | > 100 µM | 
CCOC(=O)c1cc(-c2ccc(Cl)cc2)c([N+](=O)[O-])n1C | > 10 µM | > 10 µM | > 10 µM | > 10 µM | 5.8 µM | > 10 µM |  | > 10 µM | > 10 µM |  | > 10 µM | 
Cc1nc2c(ncn2CCO)c(=O)[nH]1 | > 100 µM | > 100 µM | > 100 µM | > 100 µM | > 100 µM |  | > 100 µM | > 100 µM | > 100 µM | > 100 µM | > 100 µM | 
C[C@]12CCC(=O)C=C1CC[C@@H]1C2CC[C@]2(C)Nc3c(ncn3-c3ccc(F)cc3)CC12 (some centres undefined) | > 100 µM | 32.8 µM | 85.9 µM | 70.4 µM | > 100 µM |  | 29.7 µM | > 100 µM | 29.9 µM | > 100 µM | > 100 µM | 
CCc1n[nH]c(=O)n1NC(=O)/C=C\C(=O)O | > 100 µM | > 100 µM |  | > 100 µM | > 100 µM | > 100 µM | > 100 µM | > 100 µM | > 100 µM |  | > 100 µM | 
